# Columns and labels:
# [1] = system: myofilaments of skinned left ventricular papillary fiber bundles; test: Simultaneous tension and ATPase rate in skinned fiber bundles (second series); format: biochemical, mouse; conditions: ranolazine 15 min; for Maximum ATPase: 20° C.; for Ktr, the rate constant for force redevelopment: in s-1 (unit assumed)
# Protocol: We measured myofilament response to Ca^2+ under two experimental conditions as described in detail below. In a first series of experiments the skinned fiber bundles were mounted in a force measuring apparatus and sarcomere length (SL) was adjusted to 2.2 μm using a laser diffraction pattern and width and thickness were determined for calculation of cross-sectional area. Force was measured over a range of pCa values Skinned fiber bundles were treated with 10 μmol/L ranolazine for 15 min prior to evaluation. In a second series of experiments under different experimental conditions, we determined steady-state Mg-ATPase activity, while simultaneously measuring isometric tension in skinned fiber bundles as a function of pCa. In all experiments, skinned fibers were treated with ranolazine or DMSO vehicle for 15 min prior to beginning either tension or tension/ATPase rate measurements. Tension generated was computed from the force/cross-sectional area and data were analyzed in the GraphPad Prism software and fit with a sigmoidal modified Hill equation in order to generate tension-pCa curves, Hill coefficients, and pCa50 (pCa value at half-maximum tension). We also determined cross-bridge kinetics employing a quick release/restretch protocol. The rate constant for force redevelopment, Ktr, provides a measure of the rate of cross-bridge entry into the force generating state. In all experiments, only fiber bundles retaining more than 80% of their initial maximum tension were included in the analysis. We treated the fibers with ranolazine from a DMSO stock solution or DMSO alone added to relaxing solution for 15 min prior to the experimental run. Methods for gel electrophoresis analysis of myofilament protein phosphorylation and oxidative modifications are provided below.
# Studies with detergent extracted (skinned) fiber bundles: Mice were anesthetized with pentobarbital (50 mg/kg IP), and the hearts were rapidly excised and rinsed in a pH 7.0 ice-cold relaxing solution (HR) composed of (in mM) 10 EGTA, 41.89K-Prop, 6.57 MgCl2, 100 BES, 6.22 ATP, 5 Na azide, and 10 creatine phosphate. The solution also contained 1 μg/ml leupeptin, 2.5 μg/ml pepstatin A, and 50 μM phenylmethylsulfonyl fluoride. Left ventricular papillary muscles were dissected and fiber bundles were prepared as previously described (Wolska et al., J. Physiol. 536: 863-870 (2001)). The fiber bundles were extracted overnight in relaxing solution plus 1% Triton X-100 at 4° C.
# In a second series of experiments force and ATPase rate were measured simultaneously using methods and an experimental apparatus previously described (de Tombe et al., Circ Res 76: 734-741 (1995); Wolska et al., Circ Res 84: 745-751 (1999)). The fiber bundles were mounted between a force transducer and displacement motor using aluminum T-clips, and the sarcomere length was set to 2.2 μm using He—Ne laser diffraction (Vahebi et al., Circ Res 96: 740-747 (2005)). The width and diameter were each measured at three points along the fiber bundle. Force per cross-sectional area was used to determine tension. The fiber was contracted initially at a saturating calcium concentration (pCa 4.5) and sarcomere length was again adjusted to 2.2 μm. Sarcomere length remained constant throughout the rest of the experiment.
# ATPase activity was measured at 20° C. as previously described and calibrated with rapid injections of ADP (0.5 nmol) with a motor-controlled syringe (de Tombe et al., 1990, supra; Wolska et al., 1999, supra). The fiber was placed in relaxing solution for 2 min, then in the preactivation solution for 2-3 min each time before being placed in the activating solution for 1-2 min (until stabilization of force) and then quickly returned to the relaxing solution. Various contraction-relaxation cycles were carried out using different ratios of total calcium concentration to total EGTA concentration. The final contraction was again at a saturating calcium concentration. […]
# [2] = system: dog model of chronic heart failure; conditions: cited from earlier work
# patients = conditions: cited from earlier work
# DOCA-salt and sham mice = test: Echocardiography after chronic administration of ranolazine; format: in vivo, mouse; conditions: for ES (%): chronic ranolazine in diet (5 mg per 1-g tablet, ~1 g daily) for 7 days
# Protocol: (§1) A special diet contained 5 mg ranolazine, 0.3 mg P450 inhibitor, and 0.25 mg red food color was pressed into a 1-g nutritionally complete grain-based tablet (Harlan, Madison, Wis.). The control diet contained 0.3 mg P450 inhibitor and 0.25 mg yellow food color pressed into the same type of 1-g tablets. DOCA-salt and sham mice consumed daily ˜1 g of the special diet from postoperative day 11 to 18.
# Mice were anesthetized, maintained at 37° C., and studied by echocardiography (Vevo 770, VisualSonics Inc, Toronto, Canada). M-mode images in the parasternal long axis and the left ventricle (LV) short-axis views at the mid-papillary level were taken. Measurements were averaged from three consecutive beats during expiration. LV inflow velocities (E and A waves) were interrogated by conventional pulsed-wave Doppler from the apical four-chamber view. The mitral annulus longitudinal velocities (Sm, E′, and A′) were determined by pulsed-wave tissue Doppler from the apical four-chamber view. Interpretation was done by a two investigators blinded to the treatment groups. First, baseline images were acquired. Subsequently to determine the acute effect, the mice were injected with 30 mg/kg ranolazine by intraperitoneal route, followed by a second echocardiogram 30 min later.
# In an additional set of experiments, we treated DOCA-salt mice with ranolazine for 7 days and measured diastolic function using echocardiography to evaluate the effect of chronic ranolazine therapy on myocardial function (Table 5).
# DOCA-salt mice = test: Myofilament calcium sensitivity of fibers from mice chronically treated with ranolazine; format: in vivo, mouse; conditions: fibers from hearts of DOCA-salt mice chronically treated with ranolazine vs. DOCA-salt mice
# Protocol: as §1, with “18. […] We also determined Ktr, which is a measure of the rate of re-entry of cross-bridges into force generating states.” for “18.”
# [3] = DOCA-salt mice, chronic ranolazine in diet, 7 days
# [4] = sham mice, chronic ranolazine in diet, 7 days
smiles,measurement,setting,value
COc1ccccc1OCC(O)CN1CCN(CC(=O)Nc2c(C)cccc2C)CC1 (stereo not drawn) [ranolazine],Maximum Tension,[1]; DOCA-salt fiber bundles,27.19 ± 0.54 mN/mm^2
same,Passive Tension,[1]; DOCA-salt fiber bundles,0.68 ± 0.40 mN/mm^2
same,Tension Cost ΔATPase/ΔTension,[1]; DOCA-salt fiber bundles,10.8 ± 0.8
same,Maximum ATPase,[1]; DOCA-salt fiber bundles,326.9 ± 8.7 pmol/s/mg
same,"Ktr, the rate constant for force redevelopment",[1]; DOCA-salt fiber bundles,11.0 ± 1.0
same,Maximum Tension,[1]; sham fiber bundles,36.80 ± 0.16 mN/mm^2
same,Passive Tension,[1]; sham fiber bundles,0.55 ± 0.33 mN/mm^2
same,Tension Cost ΔATPase/ΔTension,[1]; sham fiber bundles,7.1 ± 0.4
same,Maximum ATPase,[1]; sham fiber bundles,302.0 ± 9.0 pmol/s/mg
same,"Ktr, the rate constant for force redevelopment",[1]; sham fiber bundles,11.2 ± 0.5
same,LVEDP,[2],reduces LVEDP
same,proarrhythmic risk,"patients; clinically relevant doses, MERLIN TIMI 36 investigators",no proarrhythmic risk
same,relationship with the QTc interval,"patients; human, in vivo",positive linear relationship
same,ES (%),DOCA-salt and sham mice; DOCA-salt mice,53.3 ± 1.3%
same,E/A,DOCA-salt and sham mice; [3],1.84 ± 0.35
same,"E′, early septal mitral annulus velocity (TDI)",DOCA-salt and sham mice; [3],1.86 ± 0.13 cm/s
same,"Sm, systolic septal mitral annulus velocity (TDI)",DOCA-salt and sham mice; [3],1.82 ± 0.05 cm/s
same,ES (%),DOCA-salt and sham mice; sham mice,49.7 ± 4.9%
same,E/A,DOCA-salt and sham mice; [4],2.42 ± 0.42
same,E/E′,DOCA-salt and sham mice; [4],28.0 ± 3.45
same,"E′, early septal mitral annulus velocity (TDI)",DOCA-salt and sham mice; [4],2.11 ± 0.21 cm/s
same,E′/A′,DOCA-salt and sham mice; [4],1.03 ± 0.07
same,"Sm, systolic septal mitral annulus velocity (TDI)",DOCA-salt and sham mice; [4],2.04 ± 0.12 cm/s
same,maximal tension in response to Ca2+,DOCA-salt mice,significantly reduces maximal tension
